The target in assay [1] is T1, human Smo (amino acids 181-787) (Homo sapiens, UniProt Q99835).
T1 construct: expressed in transfected cells; membrane preparation
Put plainly: Smo radioligand competition binding assay (displacement of 3H-PF-03451358 from HEK293 membranes). Conditions: for inhibition at 0.05 µM: 0.05 μM test compound, displacement of 3H-PF-03451358, read-out: SMO % inh. @ 0.05 μM; for IC50: radioligand competition binding. The gist of the method:
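Membranes (40 μg protein/well) from HEK293 expressing murine Igk-leader-fused Smo 181-787 incubated 2 h at room temperature with 3 nM 3H-PF-03451358 in Tris pH 7.5/NaCl/MgCl2/EDTA/BSA buffer; filter-bound counts by scintillation. Nonspecific binding with 30 μM cold PF-03451358; IC50 from four-parameter fit of % inhibition.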
Background: Loss of bound radioactivity is the signal in a displacement assay; it reports binding, not function.

The subject of another assay is Gli-Luc/MEF cells (Smo). Description: Gli-Luc/MEF assay (Shh-stimulated luciferase reporter under the Gli response element). The assay is classed as cell-based, mouse. Conditions: Mus musculus, MEF, 48 h. The gist of the method: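 Mouse Gli-Luc/MEF cells dosed with compound (3-fold series, […]) plus 2 μg/mL recombinant mouse Shh, then incubated 48 h at 37° C, 5% CO2. Bright-Glo luminescence read; IC50 calculated from inhibition of Shh-stimulated luciferase.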
On the technique in general: In a reporter assay the amount or activity of a reporter protein is the signal.

T1 sequence (Q99835 181-787): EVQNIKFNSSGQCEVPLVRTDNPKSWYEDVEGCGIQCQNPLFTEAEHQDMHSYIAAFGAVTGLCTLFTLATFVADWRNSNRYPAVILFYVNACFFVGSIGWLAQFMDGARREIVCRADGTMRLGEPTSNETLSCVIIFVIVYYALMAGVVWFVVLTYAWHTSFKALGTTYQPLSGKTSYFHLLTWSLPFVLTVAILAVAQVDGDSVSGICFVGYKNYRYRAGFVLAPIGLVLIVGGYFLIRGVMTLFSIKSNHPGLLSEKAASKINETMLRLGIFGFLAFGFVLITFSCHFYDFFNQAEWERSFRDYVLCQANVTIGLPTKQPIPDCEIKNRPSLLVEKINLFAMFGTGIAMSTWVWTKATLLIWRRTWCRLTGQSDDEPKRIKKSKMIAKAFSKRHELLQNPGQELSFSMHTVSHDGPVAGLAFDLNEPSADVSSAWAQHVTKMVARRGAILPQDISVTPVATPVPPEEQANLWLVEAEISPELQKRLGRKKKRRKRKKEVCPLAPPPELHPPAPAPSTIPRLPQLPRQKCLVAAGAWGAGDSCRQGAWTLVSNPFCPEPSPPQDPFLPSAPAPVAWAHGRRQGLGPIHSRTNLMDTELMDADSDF

A word on the IC50: it is the concentration that gives 50% inhibition. A high value points to weaker potency. Take `C[C@@H]1CN(c2cc(-c3nc4ccccc4n3C)c(Cl)cn2)CCN1S(C)(=O)=O` [Example A-158, 2-{5-chloro-2-[(3R)-3-methyl-4-(methylsulfonyl)piperazin-1-yl]pyridin-4-yl}-1-methyl-1H-benzimidazole]: in assay [1], the inhibition at 0.05 µM amounted to 99%. The IC50 in assay [1] came out at 9 nM; in the assay on Gli-Luc/MEF cells (Smo) it was 2 nM.
For `CC(=O)N1CCN(c2cc(-c3nc4ccccc4n3C)c(Cl)cn2)C[C@H]1C` [Example A-159, 2-{2-[(3R)-4-acetyl-3-methylpiperazin-1-yl]-5-chloropyridin-4-yl}-1-methyl-1H-benzimidazole] the same measures were 100%, 10 nM and 4 nM.
For `C[C@H]1CN(c2cc(-c3nc4ccccc4n3C)c(Cl)cn2)CCN1` [Example A-160, 2-{5-chloro-2-[(3S)-3-methylpiperazin-1-yl]pyridin-4-yl}-1-methyl-1H-benzimidazole] the same measures were 98%, 16 nM and 7 nM.
On the same counts, the results for `C[C@H]1CN(c2cc(-c3nc4ccccc4n3C)c(Cl)cn2)CCN1S(C)(=O)=O` [Example A-161, 2-{5-chloro-2-[(3S)-3-methyl-4-(methylsulfonyl)piperazin-1-yl]pyridin-4-yl}-1-methyl-1H-benzimidazole] are 98%, 9 nM and 3 nM.
As for `CC(=O)N1CCN(c2cc(-c3nc4ccccc4n3C)c(Cl)cn2)C[C@@H]1C` [Example A-162, 2-{2-[(3S)-4-acetyl-3-methylpiperazin-1-yl]-5-chloropyridin-4-yl}-1-methyl-1H-benzimidazole], in assay [1], the inhibition at 0.05 µM is 91% and the IC50 came to 7 nM. This compound also returned an IC50 in the assay with Gli-Luc/MEF cells (Smo) of 5 nM.
As to `CN(CCCO)c1cc(-c2nc3ccccc3n2C)c(Cl)cn1` [Example A-163, 3-{[5-chloro-4-(1-methyl-1H-benzimidazol-2-yl)pyridin-2-yl](methyl)amino}propan-1-ol], the inhibition at 0.05 µM in assay [1] was 98%. The IC50 in assay [1] came out at 17 nM; in the assay on Gli-Luc/MEF cells (Smo), 14 nM.
Take `CN(CCO)c1cc(-c2nc3ccccc3n2C)c(Cl)cn1` [Example A-164, 2-{[5-chloro-4-(1-methyl-1H-benzimidazol-2-yl)pyridin-2-yl](methyl)amino}ethanol]: in assay [1], the inhibition at 0.05 µM is 97% and the IC50 came out at 15 nM. The same compound registered an IC50 with Gli-Luc/MEF cells (Smo) of 14 nM.
On the same counts, the results for `Cn1c(-c2cc(NCCS(N)(=O)=O)ncc2Cl)nc2ccccc21` [Example A-165, 2-{[5-chloro-4-(1-methyl-1H-benzimidazol-2-yl)pyridin-2-yl]amino}ethanesulfonamide] are 62%, 374 nM and 280 nM.
As to `C[C@@H]1CN(S(C)(=O)=O)CCN1c1cc(-c2nc3ccccc3n2C)c(Cl)cn1` [Example A-166, 2-{5-chloro-2-[(2R)-2-methyl-4-(methylsulfonyl)piperazin-1-yl]pyridin-4-yl}-1-methyl-1H-benzimidazole], the inhibition at 0.05 µM in assay [1] stood at 102%. The IC50 in the assay on Gli-Luc/MEF cells (Smo) is 4 nM.
With `CC(=O)N1CCN(c2cc(-c3nc4ccccc4n3C)c(Cl)cn2)[C@H](C)C1` [Example A-168, 2-{2-[(2R)-4-acetyl-2-methylpiperazin-1-yl]-5-chloropyridin-4-yl}-1-methyl-1H-benzimidazole], in assay [1], the inhibition at 0.05 µM was 97% and the half-maximal inhibitory concentration (IC50) worked out at 8 nM. In the assay on Gli-Luc/MEF cells (Smo), this compound registered a concentration for half-maximal inhibition (IC50) of 7 nM.
`Cn1c(-c2cc(N3CCC(O)CC3)ncc2Cl)nc2cccnc21` [Example A-169, 1-[5-chloro-4-(3-methyl-3H-imidazo[4,5-b]pyridin-2-yl)pyridin-2-yl]piperidin-4-ol]: in assay [1], the inhibition at 0.05 µM amounted to 76% and the IC50 was 219 nM. For the same compound, the IC50 in the assay with Gli-Luc/MEF cells (Smo) was found to be 138 nM.
`Cn1c(-c2cc(N3CCN(C=O)CC3)ncc2Cl)nc2cccnc21` [Example A-170, 4-[5-chloro-4-(3-methyl-3H-imidazo[4,5-b]pyridin-2-yl)pyridin-2-yl]piperazine-1-carbaldehyde]: in assay [1], the inhibition at 0.05 µM worked out at 81% and the IC50 is 140 nM. This compound gave an IC50 in the assay with Gli-Luc/MEF cells (Smo) of 118 nM.
For `CC1C(=O)NCCN1c1cc(-c2nc3ccccc3n2C)c(Cl)cn1` (centres unmarked) [Example A-171, 4-[5-chloro-4-(1-methyl-1H-benzimidazol-2-yl)pyridin-2-yl]-3-methylpiperazin-2-one] the same measures were 97%, 31 nM and 28 nM.
On the same counts, the results for `Cn1c(-c2cc(NCCO)ncc2Cl)nc2ccccc21` [Example A-172, 2-{[5-chloro-4-(1-methyl-1H-benzimidazol-2-yl)pyridin-2-yl]amino}ethanol] are 80%, 107 nM and 52 nM.
Consider `Cn1c(-c2cc(N3CCc4[nH]ncc4C3)ncc2Cl)nc2ccccc21` [Example A-173, 5-[5-chloro-4-(1-methyl-1H-benzimidazol-2-yl)pyridin-2-yl]-4,5,6,7-tetrahydro-1H-pyrazolo[4,3-c]pyridine], for which, in assay [1], the inhibition at 0.05 µM came to 83% and the IC50 came out at 108 nM. In the assay on Gli-Luc/MEF cells (Smo), this compound returned an IC50 of 24 nM.
For `Cn1c(-c2cc(N3CCNC(=O)C3)ncc2Cl)nc2ccccc21` [Example A-174, 4-[5-chloro-4-(1-methyl-1H-benzimidazol-2-yl)pyridin-2-yl]piperazin-2-one] the same measures were 86%, 39 nM and 39 nM.
Regarding `Cn1c(-c2cc(N3C[C@H]4CC[C@@H](C3)N4S(C)(=O)=O)ncc2Cl)nc2ccccc21` [Example A-175, 2-{5-chloro-2-[(1R,5S)-8-(methylsulfonyl)-3,8-diazabicyclo[3.2.1]oct-3-yl]pyridin-4-yl}-1-methyl-1H-benzimidazole], in assay [1], the inhibition at 0.05 µM turned out to be 97% and the IC50 worked out at 17 nM. The compound further displayed a concentration for half-maximal inhibition (IC50) in the assay on Gli-Luc/MEF cells (Smo) of 9 nM.
On the same counts, the results for `CNC(=O)NC1CCN(c2cc(-c3nc4ccccc4n3C)c(Cl)cn2)C1` (centres unmarked) [Example A-176, 1-{1-[5-chloro-4-(1-methyl-1H-benzimidazol-2-yl)pyridin-2-yl]pyrrolidin-3-yl}-3-methylurea] are 82%, 84 nM and 22 nM.
Take `CC(=O)N(C)C1CN(c2cc(-c3nc4ccccc4n3C)c(Cl)cn2)C1` [Example A-177, N-{1-[5-chloro-4-(1-methyl-1H-benzimidazol-2-yl)pyridin-2-yl]azetidin-3-yl}-N-methylacetamide]: in assay [1], the inhibition at 0.05 µM is 73% and the IC50 was 174 nM. This compound also displayed an IC50 with Gli-Luc/MEF cells (Smo) of 38 nM.
For `COC(=O)N(C)C1CCN(c2cc(-c3nc4ccccc4n3C)c(Cl)cn2)C1` (centres unmarked) [Example A-178, methyl {1-[5-chloro-4-(1-methyl-1H-benzimidazol-2-yl)pyridin-2-yl]pyrrolidin-3-yl}methylcarbamate] the same measures were 92%, 43 nM and 17 nM.
Take `CNC(=O)N(C)C1CCN(c2cc(-c3nc4ccccc4n3C)c(Cl)cn2)CC1` [Example A-179, 1-{1-[5-chloro-4-(1-methyl-1H-benzimidazol-2-yl)pyridin-2-yl]piperidin-4-yl}-1,3-dimethylurea]: in assay [1], the inhibition at 0.05 µM was found to be 97%. Moreover, the IC50 in assay [1] is 10 nM; in the assay on Gli-Luc/MEF cells (Smo), 7 nM.

For the origin of these results see patent publication US20120157471A1, “BENZIMIDAZOLE DERIVATIVES” (PFIZER INC., priority 2009, published 2012).
